Laboratory results: patent publication US9636299B2, “Method for treating diabetic retinopathy” (XAVIER UNIVERSITY OF LOUISIANA, priority 2012, dated 2017)
Residues, ends and D or L forms follow the SMILES beside them.

What was measured:
MMP9 = assay: Laser photocoagulation-induced retinal injury in mice, MMP9 real-time RT-PCR; assay type: in vivo, mouse; conditions: apoEdp 40 mg/kg intraperitoneally once each day for 7 days, vs mice without apoEdp
Description: (§1) Laser Photocoagulation-Induced Retinopathy. Female mice (C57BL/6J), aged 6-8 weeks, were used for retinal laser photocoagulation studies. The mice were treated and maintained in accordance with the ARVO Statement for the Use of Animals in Ophthalmic and Vision Research. The mice were anesthetized by intraperitoneal injection of a mixture of ketamine (100 mg/kg; Warner Lambert Co., Morris Plains, N.J.) and xylazine (10 mg/kg; Bayer AG, Leverkusen, Germany), and the pupils dilated with 2.5% tropicamide (Alcon, Fort Worth, Tex.). […]
(§2) RNA Extraction, Reverse Transcription, & PCR. […] Gene expression was measured at RNA level per 100 ng of total RNA using one-step RT-PCR kit (Bio-Rad, Hercules, Calif.). Four host genes (mouse GAPDH, mouse MMP2, mouse HPSE-1 (heparanase-1), and mouse MMP9) were analyzed to confirm relative quantitative expression levels. The primer pairs used were specifically designed and synthesized by Qiagen GmbH, Hilden, Germany (Quantitech Primer assay kit, for each host gene, catalog numbers QT01658692, QT00088396, QT00009555, and QT00040040, respectively). One-step Real-time quantitative RT-PCR reactions were performed in a 50-μL volume containing a solution of 1× supermix (iQ SYBR Green; Bio-Rad, Hercules, Calif.), 1 μM mix of forward and reverse primers, and 5 μL total RNA. […] Relative quantitative expression levels were determined for each gene. […]

occludin = assay: Occludin expression in high glucose-treated hRMECs (Western blot); assay type: cell-based, human
Text: Cell Culture. Primary cultures of human retina microvascular endothelial cells (hRMECs) were purchased from the Applied Cell Biology Research Institute and grown on attachment factor-coated plates in cell systems complete (CSC) medium (Cell Systems, Kirkland, Wash.) supplemented with 20% fetal bovine serum, culture boost (animal derived growth factors) and bac-off (antibiotics). The primary hRMECs were used in their passages 4 to 6. The 18-a.a. apoE mimetic peptide apoEdp (SEQ ID NO:3, Ac-LRKLRKRLLLRKLRKRLL-amide), derived from the human apolipoprotein E receptor-binding region (see SED ID NO:1) between residues 141 and 149, was synthesized (Genemed, Arlington, Tex.) with a purity of greater than 95%. The apoEdp peptide was dissolved in phosphate-buffered saline (“PBS”) at a concentration appropriate for further experimental use. […]
Western Blotting. […] The total protein concentration was determined using a BCA protein assay kit (Pierce, Rockford, Ill.). […] To ensure the equal loading of protein in each lane, each membrane was stripped and re-probed with an antibody against β-actin, and the chemiluminescence was detected as described previously. After scanning the blots with a flatbed scanner, band intensities were analyzed using ImageJ (NIH) and the relative intensity values were normalized to control values. […]

MMP2 = assay: Laser photocoagulation-induced retinal injury in mice, MMP2 real-time RT-PCR; assay type: in vivo, mouse; conditions: apoEdp 40 mg/kg intraperitoneally once each day for 7 days, vs mice without apoEdp
Description: as §1, §2

CC(=O)N[C@@H](CC(C)C)C(=O)N[C@@H](CCCNC(=N)N)C(=O)N[C@@H](CCCCN)C(=O)N[C@@H](CC(C)C)C(=O)N[C@@H](CCCNC(=N)N)C(=O)N[C@@H](CCCCN)C(=O)N[C@@H](CCCNC(=N)N)C(=O)N[C@@H](CC(C)C)C(=O)N[C@@H](CC(C)C)C(=O)N[C@@H](CC(C)C)C(=O)N[C@@H](CCCNC(=N)N)C(=O)N[C@@H](CCCCN)C(=O)N[C@@H](CC(C)C)C(=O)N[C@@H](CCCNC(=N)N)C(=O)N[C@@H](CCCCN)C(=O)N[C@@H](CCCNC(=N)N)C(=O)N[C@@H](CC(C)C)C(=O)N[C@@H](CC(C)C)C(N)=O [apoEdp, Ac-LRKLRKRLLLRKLRKRLL-amide] (Ac-LRKLRKRLLLRKLRKRLL-NH2)
Expression of MMP9 in retina (MMP9): dramatically reduced | Occludin expression versus 30 mM glucose alone (occludin; hRMECs co-incubated with 100 μM apoEdp and 30 mM glucose): greater levels of occludin | High glucose-induced loss of tight junction protein occludin (occludin; hRMECs, 30 mM glucose 72 hours, 50 or 100 μM apoEdp): reduced | Expression of MMP2 in retina (MMP2): dramatically reduced
